According to patent US10398142B2, “Polycationic amphiphiles as antimicrobial agents” (priority 2013, dated 2019):
Entries after “also recorded” stand apart in the source; their conditions may differ. Read-outs that look alike come from different tables or passages of the source.

Tests used:
[1] = test system: CA-MRSA (USA300-0114) biofilms; assay: Minimum biofilm eradication concentration (MBEC), regrowth assay; format: cell-based, Staphylococcus aureus; settings: Table 5; USA300-0114
Method: (§1) A regrowth assay was used to establish the MBEC of a compound to evaluate the antibiofilm activity. See also H. Ceri, M. Olson, D. Morck, D. Storey, R. Read, A. Buret, B. Olson, Methods Enzymol. 2001, 337, 377.
(§2) Different biological assays were performed. For all biological assays, laboratory strains of methicillin-susceptible Staphylococcus aureus MSSA (SH1000), Enterococcus faecalis (OG1RF), Escherichia coli (MC4100), Pseudomonas aeruginosa (PAO1), community-acquired methicillin-resistant Staphylococcus aureus CA-MRSA (USA300-0114), and hospital-acquired methicillin-resistant Staphylococcus aureus HA-MRSA (ATCC 33591) were grown at 37° C. overnight from freezer stocks in 10 mL of the media indicated for each assay. All cultures, with the exception of E. faecalis, were grown with shaking at 250 rpm.
(§3) Minimum biofilm eradication concentration (MBEC) was also measured. To each well of a flat-bottomed 96-well plate (Corning 3370), 8 μL of overnight bacterial culture was brought to a volume of 200 μL with fresh media (BHI for S. aureus and MRSA, Todd Hewitt (TH) for E. faecalis). Plates were incubated statically for 24 hours at 37° C. to establish biofilms. After 24 hours, the wells were carefully emptied by inverting the plate and gently shaking. A pre-mixed solution of media and aqueous compound stock solution was added to each well and plates were incubated at 37° C. 16 hours after pre-established biofilms were treated with compound, the media from each well was removed, biofilms were washed three times with 200 μL PBS to remove planktonic cells, and biofilms were incubated overnight at 37° C. in 200 μL of fresh media to allow any viable cells to continue growing. The wells were then vigorously pipetted to resuspend the biofilm cells and the OD at 595 nm was measured using a plate reader (POLARstar Omega, BMG Labtech). Biofilms reaching a final OD of less than 0.1 were considered eradicated and the lowest concentration of antibiotic corresponded to the MBEC. Four replicates were completed for each concentration of compound as well as positive and negative controls.

[2] = test system: CA-MRSA (USA300-0114); assay: Minimum inhibitory concentration (MIC), broth microdilution; format: cell-based, Staphylococcus aureus; settings: for MIC: read-out: MIC CA-MRSA
Method: (§4) Different biological assays were performed. […] All cultures, with the exception of E. faecalis, were grown with shaking at 250 rpm.
(§5) Minimum inhibitory concentration (MIC) values against bacteria were measured using standard method. Compounds were serially diluted two-fold from an aqueous stock solution to yield twelve test concentrations. Overnight S. aureus, E. faecalis, E. coli, P. aeruginosa, CA-MRSA, and HA-MRSA cultures diluted to ca. 10^6 cfu/mL in Mueller-Hinton media and 100 μL were inoculated into each well of a U-bottom 96-well plate (BD Biosciences, BD351177) containing 100 μL of compound solution. Plates were incubated statically at 37° C. for 72 hours upon which time wells were evaluated visually for bacterial growth. The MIC was determined as the lowest concentration of compound resulting in no bacterial growth visible to the naked eye, based on the majority of three independent experiments. Positive and negative aqueous and media controls were conducted for each trial.

[3] = test system: HA-MRSA (ATCC 33591); assay: as above; format: cell-based, Staphylococcus aureus; settings: for MIC: read-out: MIC HA-MRSA
Method: as §4, §5

[4] = test system: E. faecalis biofilms; assay: Minimum biofilm eradication concentration (MBEC), regrowth assay; format: cell-based, Enterococcus faecalis; settings: Table 5
Source text: as §1
(§6) Encouraged by the potency of the QACs against planktonic bacterial cells, the inventors then evaluated the efficacy of compound (12,2,12) against Staphylococcus aureus and Enterococcus faecalis biofilms. […] To both accurately evaluate the antibiofilm activity, a regrowth assay was utilized to establish the minimum biofilm eradication concentration (MBEC) of each compound.
as §2, §3

[5] = test system: red blood cells (defibrinated sheep blood); assay: Hemolysis assay (Lysis20); settings: for Lysis20: Table 4, concentration at which less than 20% of red blood cells are lysed; for prokaryotic selectivity (lytic profile vs MIC, in words): among the multiQACs evaluated
Method: Hemolysis assays (Lysis20) were performed according to the procedure detailed in Peng, L., DeSousa, J., Su, Z., Novak, B. M., Nevzorov, A. A., Garland, E. R., and Melander, C., Inhibition of Acinetobacter baumannii biofilm formation on a methacrylate polymer containing a 2-aminoimidazole subunit, Chem. Comm. 2011, 47, 4896-4898. Defibrinated sheep blood was purchased from Hemostat Labs (DSB 100). Compounds representative of each class were serially diluted in sterile PBS from aqueous stock solutions and incubated with resuspended blood cells. The OD of the final suspensions were measured directly using plate reader. TritonX (1% by volume) served as a positive control (100% lysis marker) and sterile PBS served as a negative control (0% lysis marker).
Lysis20 indicates the concentration of compound (in μM) at which less than 20% of red blood cells are lysed.

[6] = test system: Staphylococcus aureus MSSA (SH1000); assay: Minimum inhibitory concentration (MIC), broth microdilution; format: cell-based; settings: read-out: MIC MSSA
Method: The term “minimum inhibitory concentration (MIC)” means the lowest concentration of an antimicrobial agent that will inhibit the visible growth of a microorganism after overnight incubation. MIC values against bacteria, for example, the Gram-positive Staphylococcus aureus and Enterococcus faecalis and the Gram-negative Escherichia coli and Pseudomonas aeruginosa were determined by standard methods.
With nearly three-dozen amphiphiles varying in structure and cationic nature synthesized, minimum inhibitory concentration (MIC) values against the Gram-positive Staphylococcus aureus and Enterococcus faecalis and the Gram-negative Escherichia coli and Pseudomonas aeruginosa were determined by standard methods. […] The commercially available antibacterial agent benzalkonium chloride (benzyldimethyldodecylammonium chloride, Bn,12) was tested for comparison. The broth microdilution for determining MIC values was performed as previously reported.
as §4, §5

[7] = test system: S. aureus (MSSA, SH1000) biofilms; assay: Minimum biofilm eradication concentration (MBEC), regrowth assay; format: cell-based, Staphylococcus aureus; settings: Table 5; SH1000
Source text: as §1, §6, §2, §3

Structure (SMILES)	MBEC CA-MRSA [1] [µM]	MIC ([2]; Staphylococcus aureus, Table 4, USA300-0114) [µM]	MIC ([3]; Staphylococcus aureus, Table 4, ATCC 33591) [µM]	MBEC E. faecalis [4] [µM]	Lysis20 [5] [µM]	prokaryotic selectivity (lytic profile vs MIC, in words) [5]	MIC ([6]; Staphylococcus aureus, MSSA, Table 4, SH1000) [µM]	MBEC MSSA [7] [µM]	MIC ([2]; Table 4, USA300-0114) [µM]	MIC ([3]; Table 4, ATCC 33591) [µM]	MIC ([6]; Table 4, SH1000) [µM]	MIC ([2]; Staphylococcus aureus) [µM]	potency against CA-MRSA strain possessing qacA/R (in words) ([2]; compared with MSSA)	MIC ([3]; Staphylococcus aureus) [µM]	potency against HA-MRSA (in words) ([3]; compared with MSSA)	MIC ([6]; Staphylococcus aureus, MSSA) [µM]
CCCCCCCCCC[N+](C)(C)CCC[N+](C)(CC)CCC[N+](C)(C)CCCCCCCCCC [10,3,2,3,10]	150 ± 50	2	2	100	32	highest prokaryotic selectivity	2	200	–	–	–	–	–	–	–	–
CCCCCCCCCC[N+](C)(C)CCCCCCCCCC.[Cl-] [10,10, reference compound]	≥200	–	–	>200	16	–	–	150 ± 50	4	2	1	–	–	–	–	–
CCCCCCCCCCCCCCCC[N+](C)(C)CCN(C)C.[Br-] [16,2,0]	>200	–	–	50	16	–	–	100	4	2	1	–	–	–	–	–
CCCCCCCCCCCC[n+]1ccc(-c2cc[n+](Cc3ccccc3)cc2)cc1 [PQ-12,Bn]	200	–	–	200	125	highest prokaryotic selectivity	–	200	–	–	–	32	elevated MICs; also recorded: decreased potency	16	elevated MICs	4
CCCCCCCCCCCC[n+]1ccc(-c2ccc[n+](CCCCCCCCCCCC)c2)cc1.[Br-].[Br-] [PMQ-12,12]	150 ± 50	–	–	100	8	–	–	100	1	1	1	–	–	–	–	–
CCCCCCCCCCCC[N+](C)(C)CCCN(C)C.[Br-] [12,3,0]	>200	–	–	>200	32	–	–	>200	8	4	4	–	–	–	–	–
CCCCCCCCCCCC[n+]1cccc(-c2ccc[n+](CCCCCCCCCCCC)c2)c1.[Br-].[Br-] [MQ-12,12]	100	–	–	100	8	–	–	100	2	1	1	–	–	–	–	–
